# Marks after values point to notes of the source that are not given here.
# Columns and labels:
# [1] = system: female Sprague-Dawley rats; experiment: Cystometry tests on conscious fresh rats; type: in vivo, rat; settings: for BC Bladder Capacity (change compared to the baseline value) / ICI Inter-Contraction Interval (change compared to the baseline value) / TP Threshold Pressure (change compared to the baseline value): effect maximum, mean of 3 micturition cycles; for Activity of the enantiomers of racemic compound 1 in cystometry: iv
# Method: Three days after implantation of bladder and venous catheters the animals were investigated in the conscious state while freely moving. The bladder catheter was connected to a pressure gauge and an injection pump. The animals were placed in metabolic cages that enable the volume of urine to be measured. Physiological saline solution was infused (10 ml/hour) into the emptied bladder and the bladder pressure and volume of urine were continuously recorded. After a stabilisation phase a 20-minute phase was recorded that was characterised by normal, reproducible micturition cycles. The following parameters among others were measured:
# threshold pressure TP, bladder pressure immediately before micturition,
# bladder capacity BC, residual volume after prior micturition plus volume of infused solution during the filling phase,
# intercontraction interval ICI, i.e. the time interval between consecutive micturition.
# An increase in the threshold pressure (TP) indicates an important therapeutic effect in one of the medical conditions covered by the invention. Also, the intercontraction interval (ICI) is an important parameter for measuring the physiological effectiveness of a substance in the treatment of urinary incontinence, as is the bladder capacity (BC). In this connection, on account of the widely differing causes of the symptoms of these disease patterns it is not necessary to influence positively all three parameters in order for a medicament to be effective.
# After recording three reproducible micturition cycles to provide a baseline value, the test substances 1 (1.0 mg/kg), 2 (0.1; 0.3 and 0.5 mg/kg), 21 (0.5 mg/kg), 7 (0.3 mg/kg), 8 (1.0 mg/kg), 9 (0.5 mg/kg) and 11 (0.5 mg/kg) in a vehicle comprising 0.9% NaCl were applied intravenously and the effect on the cystometric parameters was recorded at 90 to 120 minutes. In the effect maximum the mean value of 3 micturition cycles was determined and recorded as a percentage change compared to the baseline value (Table 1).
# female rats = experiment: Cystometry investigations in narcotised fresh rats (suppression of spontaneous bladder contractions); type: in vivo, rat; settings: intravenous, cumulative, mean value from at least two experiments
# Method: The cystometric investigation was carried out on fresh female rats according to the method of Kimura et al. (Kimura et al., 1996, Int. J. Urol. 3: 218-227). The abdomen of narcotised ventilated rats is opened and the ureter is ligated. The urine is drawn off from the kidneys. A catheter is inserted into the bladder and secured in place. […] The test substance is applied intravenously in a cumulative manner after stable starting values were reached. An effect on the bladder function is manifested by the suppression of the spontaneous contractions. The disappearance of the contractions over a period of 10 minutes serves as a parameter for their suppression.
# With all the substances listed there was a measurable suppression of the spontaneous contractions in rats, Table 2 showing the mean value of the lowest dose from at least two experiments, in which contractions disappeared for the first time over a period of 10 minutes.
smiles,measurement,setting,value
"CC[C@](O)(c1cccc(OC)c1)[C@H](C)CN(C)C.Cl (racemic) [Compound 1, (2RS,3RS)-1-dimethylamino-3-(3-methoxyphenyl)-2-methylpentan-3-ol, hydrochloride]",BC Bladder Capacity (change compared to the baseline value),[1]; 1.0 mg/kg iv,+31%***
same,ICI Inter-Contraction Interval (change compared to the baseline value),[1]; 1.0 mg/kg iv,+42%
same,TP Threshold Pressure (change compared to the baseline value),[1]; 1.0 mg/kg iv,+94%**
"CC[C@](O)(c1ccc(Cl)c(Cl)c1)[C@H](C)CN(C)C.Cl (racemic) [Compound 3, (2RS,3RS)-3-(3,4-dichlorophenyl)-1-dimethylamino-2-methylpentan-3-ol, hydrochloride]",Lowest Dose at which contractions disappeared for the first time over a period of 10 minutes,female rats,23.3 mg/kg
"CC[C@](O)(c1cccc(C(F)F)c1)[C@H](C)CN(C)C.Cl (racemic) [Compound 4, (2RS,3RS)-3-(3-difluoromethylphenyl)-1-dimethylamino-2-methylpentan-3-ol, hydrochloride]",Lowest Dose at which contractions disappeared for the first time over a period of 10 minutes,female rats,1.7 mg/kg
"CC[C@](O)(c1cccc(SC)c1)[C@H](C)CN(C)C.Cl (racemic) [Compound 5, (2RS,3RS)-1-dimethylamino-2-methyl-3-(3-methylsulfanylphenyl)-pentan-3-ol, hydrochloride]",Lowest Dose at which contractions disappeared for the first time over a period of 10 minutes,female rats,2.3 mg/kg
"COc1cccc(C(O)(CCN(C)C)C(C)(C)C)c1.Cl (racemic) [Compound 6, (3RS)-1-dimethylamino-3-(3-methoxyphenyl)-4,4-dimethylpentan-3-ol, hydrochloride]",Lowest Dose at which contractions disappeared for the first time over a period of 10 minutes,female rats,16.7 mg/kg
"CCC(O)(c1cccc(O)c1)C(C)CN(C)C.Cl (racemic) [Compound 7, (2RS,3RS)-3-(3-dimethylamino-1-ethyl-1-hydroxy-2-methylpropyl)-phenol, hydrochloride]",BC Bladder Capacity (change compared to the baseline value),[1]; 0.3 mg/kg iv,+32%*
same,ICI Inter-Contraction Interval (change compared to the baseline value),[1]; 0.3 mg/kg iv,+28%*
same,TP Threshold Pressure (change compared to the baseline value),[1]; 0.3 mg/kg iv,+95%**
"C[C@H](CN(C)C)[C@@](C)(O)c1cccc(O)c1.Cl (racemic) [Compound 8, (1RS,2RS)-3-(3-dimethylamino-1-hydroxy-1,2-dimethylpropyl)-phenol, hydrochloride]",BC Bladder Capacity (change compared to the baseline value),[1]; 1.0 mg/kg iv,+7%
same,ICI Inter-Contraction Interval (change compared to the baseline value),[1]; 1.0 mg/kg iv,+14.4%
same,TP Threshold Pressure (change compared to the baseline value),[1]; 1.0 mg/kg iv,+60%**
"CCC(O)(c1cccc(OC)c1)C1(CN(C)C)CCCCC1.Cl (racemic) [Compound 13, (1RS)-1-(1-dimethylaminomethylcyclohexyl)-1-(3-methoxyphenyl)-propan-1-ol, hydrochloride]",Lowest Dose at which contractions disappeared for the first time over a period of 10 minutes,female rats,20.0 mg/kg
"CC[C@](O)(c1ccc(Cl)cc1)[C@H](C)CN(C)C.Cl (racemic) [Compound 14, (2RS,3RS)-3-(4-chlorophenyl)-1-dimethylamino-2-methylpentan-3-ol, hydrochloride]",Lowest Dose at which contractions disappeared for the first time over a period of 10 minutes,female rats,20.0 mg/kg
"CC[C@](O)(c1cccc(OC)c1)[C@H](C)CN(C)C.Cl [Compound 2, (+)-(2R,3R)-1-dimethylamino-3-(3-methoxyphenyl)-2-methylpentan-3-ol, hydrochloride]",BC Bladder Capacity (change compared to the baseline value),[1]; 0.1 mg/kg iv,+7.8%
same,ICI Inter-Contraction Interval (change compared to the baseline value),[1]; 0.1 mg/kg iv,+15.6%
same,TP Threshold Pressure (change compared to the baseline value),[1]; 0.1 mg/kg iv,+28.5%**
same,BC Bladder Capacity (change compared to the baseline value),[1]; 0.3 mg/kg iv,+33%*
same,ICI Inter-Contraction Interval (change compared to the baseline value),[1]; 0.3 mg/kg iv,+28%*
same,TP Threshold Pressure (change compared to the baseline value),[1]; 0.3 mg/kg iv,+122%**
same,BC Bladder Capacity (change compared to the baseline value),[1]; 0.5 mg/kg iv,+20.6%*
same,ICI Inter-Contraction Interval (change compared to the baseline value),[1]; 0.5 mg/kg iv,+28.6%**
same,TP Threshold Pressure (change compared to the baseline value),[1]; 0.5 mg/kg iv,+77.5%**
same,Activity of the enantiomers of racemic compound 1 in cystometry,[1],effectively active
"C[C@H](CN(C)C)[C@@](C)(O)c1cccc(O)c1.Cl [Compound 9, (+)-(1R,2R)-3-(3-dimethylamino-1-hydroxy-1,2-dimethylpropyl)-phenol, hydrochloride]",BC Bladder Capacity (change compared to the baseline value),[1]; 0.5 mg/kg iv,+50%**
same,ICI Inter-Contraction Interval (change compared to the baseline value),[1]; 0.5 mg/kg iv,+21%*
same,TP Threshold Pressure (change compared to the baseline value),[1]; 0.5 mg/kg iv,+56%**
"C[C@H](CN(C)C)[C@@](C)(O)c1cccc(O)c1.Cl [Compound 10, (+)-(1R,2R)-3-(3-dimethylamino-1-hydroxy-1,2-dimethylpropyl)-phenol, hydrochloride]",Lowest Dose at which contractions disappeared for the first time over a period of 10 minutes,female rats,0.2 mg/kg
"CC[C@@H](c1cccc(O)c1)[C@@H](C)CN(C)C.Cl [Compound 11, (−)-(1R,2R)-3-(3-dimethylamino-1-ethyl-2-methylpropyl)-phenol, hydrochloride]",BC Bladder Capacity (change compared to the baseline value),[1]; 0.5 mg/kg iv,+11%
same,ICI Inter-Contraction Interval (change compared to the baseline value),[1]; 0.5 mg/kg iv,+22.6%
same,TP Threshold Pressure (change compared to the baseline value),[1]; 0.5 mg/kg iv,+9%
"CC[C@](OC(C)=O)(c1cccc(OC)c1)[C@H](C)CN(C)C.Cl [Compound 12, (+)-(1R,2R)-acetic acid-3-dimethylamino-1-ethyl-1-(3-methoxyphenyl)-2-methylpropyl ester, hydrochloride]",Lowest Dose at which contractions disappeared for the first time over a period of 10 minutes,female rats,30.0 mg/kg
"CC[C@@](O)(c1cccc(OC)c1)[C@@H](C)CN(C)C.Cl [Compound 21, (−)-(2S,3S)-1-dimethylamino-3-(3-methoxyphenyl)-2-methylpentan-3-ol, hydrochloride]",BC Bladder Capacity (change compared to the baseline value),[1]; 0.5 mg/kg iv,+3%
same,ICI Inter-Contraction Interval (change compared to the baseline value),[1]; 0.5 mg/kg iv,+10%
same,TP Threshold Pressure (change compared to the baseline value),[1]; 0.5 mg/kg iv,−1.1%
same,Activity of the enantiomers of racemic compound 1 in cystometry,[1],plays only a contributory role
